Source: US10815205B2, “Amide-substituted phenyltriazole derivatives and uses thereof” (BAYER PHARMA AKTIENGESELLSCHAFT, priority 2016, dated 2020)

Legend:
[1] = molecular target: T1, human V2 receptor (Homo sapiens, UniProt P30518); test: Cellular in vitro assay for vasopressin receptor activity, V2 receptor cell line (CRE-luciferase); format: cell-based; settings: Table 1A; CHO cell line transfected with human V2 receptor; [Arg8]-vasopressin at EC50; read-out: IC50 hV2
T1 construct: expressed in transfected cells; host or cells: CHO K1 (ATCC) expressing firefly luciferase under a CRE-responsive promoter
Procedure: (§1) B-1. Cellular In Vitro Assay for Determining Vasopressin Receptor Activity
(§2) The identification of agonists and antagonists of the V1a and V2 vasopressin receptors from humans, rats and dogs as well as the quantification of the activity of the compounds of the invention is carried out using recombinant cell lines. These cell lines originally derive from a hamster's ovary epithelial cell (Chinese Hamster Ovary, CHO K1, ATCC: American Type Culture Collection, Manassas, Va. 20108, USA). The test cell lines constitutively express the human, rat or dog V1a or V2 receptors. In case of the Gαq-coupled V1a receptors, cells are also stably transfected with a modified form of the calcium-sensitive photoproteins aequorin (human and rat V1a) or obe-lin (dog V1a), which, after reconstitution with the cofactor coelenterazine, emit light when there are increases in free calcium concentrations [Rizzuto R, Simpson A W, Brini M, Pozzan T, Nature 358, 325-327 (1992); Illarionov B A, Bondar V S, Illarionova V A, Vysotski E S, Gene 153 (2), 273-274 (1995)]. The resulting vasopressin receptor cells react to stimulation of the recombinantly expressed V1a receptors by intracellular release of calcium ions, which can be quantified by the resulting photoprotein luminescence. The Gs-coupled V2 receptors are stably transfected into cell lines expressing the gene for firefly luciferase under control of a CRE-responsible promoter. Activation of V2 receptors induces the activation of the CRE-responsive promoter via cAMP increase, thereby inducing the expression of firefly luciferase. The light emitted by photoproteins of V1a cell lines as well as the light emitted by firefly luciferase of V2 cell lines corresponds to the activation or inhibition of the respective vasopressin receptor. The bioluminescence of the cell lines is detected using a suitable luminometer [Milligan G, Marshall F, Rees S, Trends in Pharmacological Sciences 17, 235-237 (1996)].
Vasopressin V2 Receptor Cell Lines:
On the day before the assay, the cells are plated out in culture medium (DMEM/F12, 2% FCS, 2 mM glutamine, 10 mM HEPES) in 384-well microtiter plates and kept in a cell incubator (96% humidity, 5% v/v CO2, 37° C.). On the day of the assay, test compounds in various concentrations and the agonist [Arg^8]-vasopressin at EC50 concentration are added together to the wells, and plates are incubated for 3 hours in a cell incubator. Upon addition of the cell lysis reagent Triton™ and the substrate luciferin, luminescence of firefly luciferase is measured in a luminometer.

[2] = molecular target: T2, human V1a receptor (Homo sapiens, UniProt P37288); test: Cellular in vitro assay for vasopressin receptor activity, V1a receptor cell line (aequorin luminescence); format: cell-based; settings: Table 1A; for IC50: CHO cell line transfected with human V1a receptor, [Arg8]-vasopressin at EC50, read-out: IC50 hV1a; for ratio IC50 hV2/hV1a: selectivity V1a over V2
T2 construct: expressed in transfected cells; host or cells: CHO K1 (ATCC), also stably transfected with a modified aequorin
Procedure: as §1, §2
Vasopressin V1a Receptor Cell Lines:
On the day before the assay, the cells are plated out in culture medium (DMEM/F12, 2% FCS, 2 mM glutamine, 10 mM HEPES, 5 μg/ml coelenterazine) in 384-well microtiter plates and kept in a cell incubator (96% humidity, 5% v/v CO2, 37° C.). On the day of the assay, test compounds in various concentrations are placed for 10 minutes in the wells of the microtiter plate before the agonist [Arg^8]-vasopressin at EC50 concentration is added. The resulting light signal is measured immediately in a luminometer.

T1 sequence (P30518 whole entry): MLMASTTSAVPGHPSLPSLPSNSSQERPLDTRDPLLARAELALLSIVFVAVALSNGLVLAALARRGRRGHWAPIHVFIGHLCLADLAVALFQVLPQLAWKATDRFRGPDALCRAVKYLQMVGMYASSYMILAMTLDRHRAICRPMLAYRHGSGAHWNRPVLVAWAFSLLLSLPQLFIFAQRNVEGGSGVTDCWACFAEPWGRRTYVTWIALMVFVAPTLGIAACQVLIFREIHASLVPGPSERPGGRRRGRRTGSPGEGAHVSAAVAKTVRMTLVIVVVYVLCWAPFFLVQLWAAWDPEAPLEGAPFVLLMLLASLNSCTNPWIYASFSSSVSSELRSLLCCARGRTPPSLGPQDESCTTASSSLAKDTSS
T2 sequence (P37288 whole entry): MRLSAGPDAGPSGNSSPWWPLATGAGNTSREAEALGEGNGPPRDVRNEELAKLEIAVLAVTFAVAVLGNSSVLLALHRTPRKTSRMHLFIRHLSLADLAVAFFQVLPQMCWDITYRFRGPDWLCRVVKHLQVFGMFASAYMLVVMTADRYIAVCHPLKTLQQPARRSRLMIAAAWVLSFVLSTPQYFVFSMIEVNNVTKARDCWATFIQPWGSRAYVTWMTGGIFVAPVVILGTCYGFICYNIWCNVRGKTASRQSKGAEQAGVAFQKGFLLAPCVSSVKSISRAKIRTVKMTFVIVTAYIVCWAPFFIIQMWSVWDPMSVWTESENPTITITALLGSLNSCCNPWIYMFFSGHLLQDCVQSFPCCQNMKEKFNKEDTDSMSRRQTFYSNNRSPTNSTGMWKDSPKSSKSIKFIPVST

Row | IC50 [1] | IC50 [2] | ratio IC50 hV2/hV1a [2] | SMILES
1 | 175 nM | 2.35 nM | 74.5 | NC(=O)c1nc(Cn2nc(-c3ccc(Cl)cc3)n(C[C@@H](O)C(F)(F)F)c2=O)nn1-c1ccccc1C(F)(F)F [Example 2, 3-({3-(4-Chlorophenyl)-5-oxo-4-[(2R)-3,3,3-trifluoro-2-hydroxypropyl]-4,5-dihydro-1H-1,2,4-triazol-1-yl}methyl)-1-[2-(trifluoromethyl)phenyl]-1H-1,2,4-triazole-5-carboxamide]
2 | 975 nM | 12.9 nM | 75.6 | CNC(=O)c1ccccc1-n1nc(Cn2nc(-c3ccc(Cl)cc3)n(C[C@H](O)C(F)(F)F)c2=O)nc1C(N)=O [Example 6, 3-({3-(4-Chlorophenyl)-5-oxo-4-[(2S)-3,3,3-trifluoro-2-hydroxypropyl]-4,5-dihydro-1H-1,2,4-triazol-1-yl}methyl)-1-[2-(methylcarbamoyl)phenyl]-1H-1,2,4-triazole-5-carboxamide]
3 | 23.9 nM | 0.58 nM | 41.4 | NC(=O)c1nc(Cn2nc(-c3ccc(Cl)cc3)n(C[C@H](O)C(F)(F)F)c2=O)nn1-c1ccccc1C(F)(F)F [Example 1, 3-({3-(4-Chlorophenyl)-5-oxo-4-[(2S)-3,3,3-trifluoro-2-hydroxypropyl]-4,5-dihydro-H-1,2,4-triazol-1-yl}methyl)-1-[2-(trifluoromethyl)phenyl]-1H-1,2,4-triazole-5-carboxamide]
4 | 106 nM | 8.95 nM | 11.9 | NC(=O)c1nc(Cn2nc(-c3ccc(Cl)cc3)n(CC(=O)C(F)(F)F)c2=O)nn1-c1ccccc1OC(F)(F)F [Example 9, 3-{[3-(4-chlorophenyl)-5-oxo-4-(3,3,3-trifluoro-2-oxopropyl)-4,5-dihydro-H-1,2,4-triazol-1-yl]methyl}-1-[2-(trifluoromethoxy)phenyl]-1H-1,2,4-triazole-5-carboxamide (ketone form) or 3-{[3-(4-chlorophenyl)-5-oxo-4-(3,3,3-trifluoro-2,2-dihydroxypropyl)-4,5-dihydro-1H-1,2,4-triazol-1-yl]methyl}-1-[2-(trifluoromethoxy)phenyl]-1H-1,2,4-triazole-5-carboxamide (hydrate form)]
5 | 38.5 nM | 1.6 nM | 24.1 | CCOc1ccccc1-n1nc(Cn2nc(-c3ccc(Cl)cc3)n(C[C@H](O)C(F)(F)F)c2=O)nc1C(N)=O [Example 5, 3-({3-(4-Chlorophenyl)-5-oxo-4-[(2S)-3,3,3-trifluoro-2-hydroxypropyl]-4,5-dihydro-1H-1,2,4-triazol-1-yl}methyl)-1-(2-ethoxyphenyl)-1H-1,2,4-triazole-5-carboxamide]
6 | 75.5 nM | 1.25 nM | 60.4 | NC(=O)c1nc(Cn2nc(-c3ccc(Cl)cc3)n(C[C@H](O)C(F)(F)F)c2=O)nn1-c1ccccc1OC(F)(F)F [Example 3, 3-({3-(4-Chlorophenyl)-5-oxo-4-[(2S)-3,3,3-trifluoro-2-hydroxypropyl]-4,5-dihydro-1H-1,2,4-triazol-1-yl}methyl)-1-[2-(trifluoromethoxy)phenyl]-1H-1,2,4-triazole-5-carboxamide]
7 | 665 nM | 9.65 nM | 68.9 | NC(=O)c1nc(Cn2nc(-c3ccc(Cl)cc3)n(C[C@@H](O)C(F)(F)F)c2=O)nn1-c1ccccc1OC(F)(F)F [Example 4, 3-({3-(4-Chlorophenyl)-5-oxo-4-[(2R)-3,3,3-trifluoro-2-hydroxypropyl]-4,5-dihydro-1H-1,2,4-triazol-1-yl}methyl)-1-[2-(trifluoromethoxy)phenyl]-1H-1,2,4-triazole-5-carboxamide]
8 | 33.7 nM | 1.85 nM | 18.2 | NC(=O)c1nc(Cn2nc(-c3ccc(Cl)cc3)n(CC(=O)C(F)(F)F)c2=O)nn1-c1ccccc1C(F)(F)F [Example 8, 3-{[3-(4-chlorophenyl)-5-oxo-4-(3,3,3-trifluoro-2-oxopropyl)-4,5-dihydro-H-1,2,4-triazol-1-yl]methyl}-1-[2-(trifluoromethyl)phenyl]-1H-1,2,4-triazole-5-carboxamide (ketone form) or 3-{[3-(4-chlorophenyl)-5-oxo-4-(3,3,3-trifluoro-2,2-dihydroxypropyl)-4,5-dihydro-H-1,2,4-triazol-1-yl]methyl}-1-[2-(trifluoromethyl)phenyl]-1H-1,2,4-triazole-5-carboxamide (hydrate form)]
9 | 712 nM | 17.5 nM | 40.7 | CS(=O)(=O)c1ccccc1-n1nc(Cn2nc(-c3ccc(Cl)cc3)n(C[C@H](O)C(F)(F)F)c2=O)nc1C(N)=O [Example 7, 3-({3-(4-Chlorophenyl)-5-oxo-4-[(2S)-3,3,3-trifluoro-2-hydroxypropyl]-4,5-dihydro-1H-1,2,4-triazol-1-yl}methyl)-1-[2-(methylsulfonyl)phenyl]-1H-1,2,4-triazole-5-carboxamide]
10 | 890 nM | 8.2 nM | 108.5 | CCOc1ccccc1-n1nc(Cn2nc(-c3ccc(Cl)cc3)n(C[C@@H](O)C(F)(F)F)c2=O)nc1C(N)=O [Example 10, 3-({3-(4-Chlorophenyl)-5-oxo-4-[(2R)-3,3,3-trifluoro-2-hydroxypropyl]-4,5-dihydro-H-1,2,4-triazol-1-yl}methyl)-1-(2-ethoxyphenyl)-1H-1,2,4-triazole-5-carboxamide]
